Assay results from patent US5814612A, “Retinol derivatives and uses thereof” (priority 1992, dated 1998).
Where two headings read alike, the source gives them in different places.

Experiments:
B lymphocytes = settings: cited from earlier work
CD8^+ T lymphocytes = assay: Proliferation of anti-CD3 plus IL-2 activated CD8+ T lymphocytes; type: cell-based, BALB/c mouse
From the text: Growth curves of lymph node T cells depleted of antigen-presenting cells (FIG. 17A) with and without 10^-6 M retinol at 2×10^5 and 5×10^4 cells/well. (FIG. 17B) Dose-responses elicited by different retinoids in cultures of lymph node T cells depleted of antigen-presenting cells. Also shown are the growth curves of CD4^+ (FIG. 17C) and CD8^+ T lymphocytes (FIG. 17D) in the presence of either retinol, 14HRR, human serum or in their absence.
T lymphocytes, purified as described, 5×10^4 /well, were activated with immobilized anti-CD3 antibody in ITLB medium. The indicated amounts of retinoids or human serum were added at initiation of cultures. […] 14HRR was added every 12 hours. DNA synthesis was measured by a 4 hour pulse with tritiated thymidine. SDs were ≤17%.
Mature T cells were obtained from pooled intestinal, axillary, inguinal and submandibular lymph nodes of 4 to 10-week-old BALB/c mice. To fractionate cells into CD4 and CD8 subsets and at the same time remove APC, a combination of adherence and complement lysis was used as follows:
The cell suspension in a volume of 2 ml was applied to a nylon wool column (40) (0.6 g of washed nylon fibers in the barrel of a 10 ml syringe) and incubated at 37° C. for 40 min. […] The success of the enrichment procedures was monitored cytofluorimetrically using FITC-conjugated anti-CD8 and PE-conjugated anti-CD4. […]

[1] = Stability of retinoids in serum-free tissue culture medium; type: in vitro ADME
5/2 cells = type: in vitro ADME, human
Method: 5/2 cells (10^6 cells in 10 ml HB 101 medium) were incubated with all-trans-[^3 H] retinol (10 uCe/ml). After 24 hours, retinoids were extracted from the washed cell pellet and unlabeled marker retinoids were added. The crude extract was loaded on an analytical reversed-phase C-18 column. Retinoids were eluted with the shown linear gradient of water/methanol/chloroform. The flow rate was 0.5 ml/min. DPM were determined with an on line scintillation counter. Reference retinoids were the all-trans forms of 0: 3,4-didehydroretinoic acid, 1: all-trans-retinoic acid, 2: 3,4-didehydroretinol, 3: retinol, 4: retinyl linoleate, 5: retinyl oleate, 6: retinyl palmitate. Shaded area corresponds to P3. Cross-hatched area corresponds to P1.
Lymphoblastoid 5/2 cells grown in the presence of 10^-6 M retinol were spiked with ^3 H-labeled retinol. After 16 hours the cell pellet was delipidated according to the method of McLean et al. and separated on a reversed phase C-18 HPLC column (FIG. 7). […] Three peaks, P1, P2 and P3, could not be immediately identified. One peak eluting at 36-39 minutes (corresponding 83% methanol 7% water) provisionally called P3, but now known as 14HRR, was unusual because unlike P1 eluting at 31-34 minutes, its relative amount increased when the retinol concentration was lowered or when retinol was given to the cells bound to RBP. […] Since HeLa cells contain 14HRR, these cells were also used. 50 ml of packed HeLa cells (10^10 cells) yielded 25 OD348nmunits of pure P3 after the following sequence of steps: 1. Growth in the presence of 10^-5 M retinol; 2. Extraction of cell pellet according to McClean et al. (13); 3. Preparative C-18 HPLC column eluted with a water/methanol gradient; 4. semipreparative C18 HPLC column eluted with a water/acetonitrile gradient; 5. analytical C4 column eluted with a water/methanol gradient.

Ket = assay: Retinol metabolism, Ket; type: in vitro ADME, human
Method: (§1) Legend: 2.5×10^6 cells were grown overnight in 5 ml RPMI/10% FBS. The FBS was preincubated at room temperature with 14.4 uCi [^3 H] retinol (NEN) for 4h. The cell pellet was washed twice with PBS. The retinoid were extracted according to MClean et al. 90 and separated on an analytical c18 reverse phase column according to FIG. 7. The DPM were determined using an on-line scintillation counter.

SK--N--SH = assay: Retinol metabolism, SK--N--SH; type: in vitro ADME, human
Method: as §1

P388D.1 = assay: Retinol metabolism, P388D.1; type: in vitro ADME, mouse
Method: as §1

RPMI = assay: Retinol metabolism, RPMI (Leukemia ALL); type: in vitro ADME
Method: as §1

In the case of `CC(C=CC=C(C)C(O)CO)=CC=C1C(C)=CCCC1(C)C` (centres unmarked) [14HRR, 14-hydroxy-4,14-retro-retinol], the “difference in active concentration, 14HRR vs retinal” value (B lymphocytes) is listed as 40 fold, the “support of B cell proliferation / response” value (B lymphocytes) is listed as “capable of supporting the proliferation of B cells in the absence of an external supply of retinal” and the active concentration (B lymphocytes; previous analyses with B lymphocytes (ref. 33)) is listed as 50 nM. The “response of CD8+ subset to anti-CD3 plus IL-2” value (CD8^+ T lymphocytes) was “responded to the activating signal”, the half-life [1] was roughly 4 h and the half-life ([1]; tissue culture medium, data not shown) was 4 h.
For `CC1=C(/C=C/C(C)=C/C=C/C(C)=C/C(=O)O)C(C)(C)CCC1` [all-trans retinoic acid], the “detection as metabolite of retinol” value (5/2 cells) was “not detectable”.
For `CC1=C(/C=C/C(C)=C/C=C/C(C)=C/CO)C(C)(C)CCC1` [retinol, all-trans retinol], the “Ester (% of taken up retinol)” value (Ket) was 41%, the “P3 (% of taken up retinol)” value (Ket) was 3% and the Total cts. (Ket) was 4.6 × 10^5 cts. For the same molecule, the “Ester (% of taken up retinol)” value (SK--N--SH) was 25%, the “P3 (% of taken up retinol)” value (SK--N--SH) was 0.9% and the “Retinol (% of taken up retinol)” value (SK--N--SH) was 56%. For the same molecule, the Total cts. (SK--N--SH) was 2.0 × 10^5 cts, the “Ester (% of taken up retinol)” value (P388D.1) was 26% and the “P3 (% of taken up retinol)” value (P388D.1) was 0.5%. For the same molecule, the Total cts. (P388D.1) was 1.4 × 10^5 cts, the “Ester (% of taken up retinol)” value (RPMI) was 38% and the “P3 (% of taken up retinol)” value (RPMI) was 2%. The Total cts. (RPMI) was 1.2 × 10^5 cts.
